Test results from PubChem BioAssay (NCI).
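48-hour exposure; five concentrations; linearly interpolated endpoints. GI50 = concentration required for 50% inhibition of growth. TGI denotes the concentration required for complete inhibition of growth.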

Legend:
Test in all cases: NCI tumour cell line growth inhibition, 48 h
NCI-H522 lung = system: NCI-H522 lung
CAKI-1 renal = system: CAKI-1 renal
UO-31 renal = system: UO-31 renal
MDA-N = system: MDA-N
UACC-257 melanoma = system: UACC-257 melanoma
OVCAR-5 ovarian = system: OVCAR-5 ovarian
SK-MEL-5 melanoma = system: SK-MEL-5 melanoma
HCT-15 colon = system: HCT-15 colon
RPMI-8226 leukemia = system: RPMI-8226 leukemia
DU-145 prostate = system: DU-145 prostate
K-562 leukemia = system: K-562 leukemia
COLO 205 colon = system: COLO 205 colon
OVCAR-3 ovarian = system: OVCAR-3 ovarian
UACC-62 melanoma = system: UACC-62 melanoma
A549 NSCLC = system: A549 NSCLC
NCI-H460 lung = system: NCI-H460 lung
HS 578T breast = system: HS 578T breast
MCF7 breast = system: MCF7 breast
SN12C renal = system: SN12C renal
SF-268 CNS = system: SF-268 CNS
MDA-MB-435 = system: MDA-MB-435
SK-MEL-2 melanoma = system: SK-MEL-2 melanoma
NCI-H23 lung = system: NCI-H23 lung
HOP-62 NSCLC = system: HOP-62 NSCLC
HT29 colon = system: HT29 colon
TK-10 renal = system: TK-10 renal
CCRF-CEM leukemia = system: CCRF-CEM leukemia
MOLT-4 leukemia = system: MOLT-4 leukemia
SF-539 CNS = system: SF-539 CNS
KM12 colon = system: KM12 colon
EKVX NSCLC = system: EKVX NSCLC
SNB-19 CNS = system: SNB-19 CNS
NCI/ADR-RES ovarian = system: NCI/ADR-RES ovarian
SR leukemia = system: SR leukemia
IGROV1 ovarian = system: IGROV1 ovarian
LOX IMVI melanoma = system: LOX IMVI melanoma
OVCAR-8 ovarian = system: OVCAR-8 ovarian
M14 melanoma = system: M14 melanoma
786-0 renal = system: 786-0 renal
SF-295 CNS = system: SF-295 CNS
HCT-116 colon = system: HCT-116 colon
SW-620 colon = system: SW-620 colon
ACHN renal = system: ACHN renal
T-47D breast = system: T-47D breast
SK-MEL-28 melanoma = system: SK-MEL-28 melanoma
PC-3 prostate = system: PC-3 prostate
OVCAR-4 ovarian = system: OVCAR-4 ovarian
BT-549 breast = system: BT-549 breast
MDA-MB-231 breast = system: MDA-MB-231 breast
SNB-75 CNS = system: SNB-75 CNS
HOP-92 NSCLC = system: HOP-92 NSCLC
HL-60(TB) leukemia = system: HL-60(TB) leukemia
A498 renal = system: A498 renal
RXF 393 renal = system: RXF 393 renal
U251 CNS = system: U251 CNS
MALME-3M melanoma = system: MALME-3M melanoma
SK-OV-3 ovarian = system: SK-OV-3 ovarian
NCI-H226 lung = system: NCI-H226 lung
HCC-2998 colon = system: HCC-2998 colon

COC(=O)C(Nc1ccc(OC)cc1)c1ccccc1 (configuration not stated)
TGI (NCI-H522 lung): > 100 µM
TGI (CAKI-1 renal): > 100 µM
TGI (UO-31 renal): > 100 µM
TGI (MDA-N): > 100 µM
TGI (UACC-257 melanoma): > 100 µM
TGI (OVCAR-5 ovarian): > 100 µM
TGI (SK-MEL-5 melanoma): > 100 µM
TGI (HCT-15 colon): > 100 µM
TGI (RPMI-8226 leukemia): > 100 µM
TGI (DU-145 prostate): > 100 µM
TGI (K-562 leukemia): > 100 µM
TGI (COLO 205 colon): > 100 µM
TGI (OVCAR-3 ovarian): > 100 µM
TGI (UACC-62 melanoma): > 100 µM
TGI (A549 NSCLC): > 100 µM
TGI (NCI-H460 lung): > 100 µM
TGI (HS 578T breast): > 100 µM
TGI (MCF7 breast): > 100 µM
TGI (SN12C renal): > 100 µM
TGI (SF-268 CNS): > 100 µM
TGI (MDA-MB-435): > 100 µM
TGI (SK-MEL-2 melanoma): > 100 µM
TGI (NCI-H23 lung): > 100 µM
TGI (HOP-62 NSCLC): > 100 µM
TGI (HT29 colon): > 100 µM
TGI (TK-10 renal): > 100 µM
TGI (CCRF-CEM leukemia): > 100 µM
TGI (MOLT-4 leukemia): > 100 µM
TGI (SF-539 CNS): > 100 µM
TGI (KM12 colon): > 100 µM
TGI (EKVX NSCLC): > 100 µM
TGI (SNB-19 CNS): > 100 µM
TGI (NCI/ADR-RES ovarian): > 100 µM
TGI (SR leukemia): > 100 µM
TGI (IGROV1 ovarian): > 100 µM
TGI (LOX IMVI melanoma): > 100 µM
TGI (OVCAR-8 ovarian): > 100 µM
TGI (M14 melanoma): > 100 µM
TGI (786-0 renal): > 100 µM
TGI (SF-295 CNS): > 100 µM
TGI (HCT-116 colon): > 100 µM
TGI (SW-620 colon): > 100 µM
TGI (ACHN renal): > 100 µM
TGI (T-47D breast): > 100 µM
TGI (SK-MEL-28 melanoma): > 100 µM
TGI (PC-3 prostate): > 100 µM

O=C1c2ccccc2-c2c1c1ccccc1c(=O)n2CCCN1CCOCC1
GI50 (NCI-H522 lung): 10.1 µM
TGI (NCI-H522 lung): > 63.3 µM
GI50 (CAKI-1 renal): 14 µM
TGI (CAKI-1 renal): 30 µM
GI50 (UO-31 renal): 17.1 µM
TGI (UO-31 renal): > 100 µM
GI50 (UACC-257 melanoma): > 100 µM
TGI (UACC-257 melanoma): > 100 µM
GI50 (OVCAR-5 ovarian): 35.9 µM
TGI (OVCAR-5 ovarian): > 100 µM
GI50 (SK-MEL-5 melanoma): 12.3 µM
TGI (SK-MEL-5 melanoma): > 95 µM
GI50 (HCT-15 colon): 21.8 µM
TGI (HCT-15 colon): > 100 µM
GI50 (RPMI-8226 leukemia): > 44.4 µM
TGI (RPMI-8226 leukemia): > 100 µM
GI50 (DU-145 prostate): 10.1 µM
TGI (DU-145 prostate): > 82.6 µM
GI50 (K-562 leukemia): > 100 µM
TGI (K-562 leukemia): > 100 µM
GI50 (OVCAR-4 ovarian): > 100 µM
TGI (OVCAR-4 ovarian): > 100 µM
GI50 (BT-549 breast): 8 µM
TGI (BT-549 breast): 25.5 µM
GI50 (MDA-MB-231 breast): 12 µM
TGI (MDA-MB-231 breast): 34.1 µM
GI50 (COLO 205 colon): > 100 µM
TGI (COLO 205 colon): > 100 µM
GI50 (OVCAR-3 ovarian): 25 µM
TGI (OVCAR-3 ovarian): > 100 µM
GI50 (SNB-75 CNS): 2980 nM
TGI (SNB-75 CNS): > 27.7 µM
GI50 (UACC-62 melanoma): 5.83 µM
TGI (UACC-62 melanoma): 21 µM
GI50 (HOP-92 NSCLC): 4.81 µM
TGI (HOP-92 NSCLC): 13 µM
GI50 (A549 NSCLC): 26.2 µM
TGI (A549 NSCLC): > 100 µM
GI50 (NCI-H460 lung): 20 µM
TGI (NCI-H460 lung): > 100 µM
GI50 (HS 578T breast): 4.15 µM
TGI (HS 578T breast): 14.8 µM
GI50 (HL-60(TB) leukemia): 24.9 µM
TGI (HL-60(TB) leukemia): > 100 µM
GI50 (MCF7 breast): 9.31 µM
TGI (MCF7 breast): > 100 µM
GI50 (SN12C renal): 21.3 µM
TGI (SN12C renal): > 100 µM
GI50 (SF-268 CNS): 6.52 µM
TGI (SF-268 CNS): 26.1 µM
GI50 (MDA-MB-435): > 100 µM
TGI (MDA-MB-435): > 100 µM
GI50 (SK-MEL-2 melanoma): 19.5 µM
TGI (SK-MEL-2 melanoma): 50.7 µM
GI50 (NCI-H23 lung): 15.4 µM
TGI (NCI-H23 lung): 41.5 µM
GI50 (HOP-62 NSCLC): 6.22 µM
TGI (HOP-62 NSCLC): 18.7 µM
GI50 (HT29 colon): > 100 µM
TGI (HT29 colon): > 100 µM
GI50 (TK-10 renal): 12.1 µM
TGI (TK-10 renal): 31.9 µM
GI50 (A498 renal): 21.7 µM
TGI (A498 renal): 71.4 µM
GI50 (CCRF-CEM leukemia): > 38.4 µM
TGI (CCRF-CEM leukemia): > 100 µM
GI50 (MOLT-4 leukemia): 8.11 µM
TGI (MOLT-4 leukemia): > 100 µM
GI50 (RXF 393 renal): 6.21 µM
TGI (RXF 393 renal): 24.3 µM
GI50 (SF-539 CNS): 6.65 µM
TGI (SF-539 CNS): 19.6 µM
GI50 (KM12 colon): > 100 µM
TGI (KM12 colon): > 100 µM
GI50 (EKVX NSCLC): 22.7 µM
TGI (EKVX NSCLC): 76.4 µM
GI50 (U251 CNS): 3.67 µM
TGI (U251 CNS): 14.9 µM
GI50 (SNB-19 CNS): 14.2 µM
TGI (SNB-19 CNS): 39.1 µM
GI50 (NCI/ADR-RES ovarian): 18.2 µM
TGI (NCI/ADR-RES ovarian): > 100 µM
GI50 (SR leukemia): 12.2 µM
TGI (SR leukemia): > 100 µM
GI50 (IGROV1 ovarian): 8.36 µM
TGI (IGROV1 ovarian): > 50.1 µM
GI50 (LOX IMVI melanoma): 8.87 µM
TGI (LOX IMVI melanoma): 62.1 µM
GI50 (OVCAR-8 ovarian): 7.26 µM
TGI (OVCAR-8 ovarian): > 75.2 µM
GI50 (M14 melanoma): 99.2 µM
TGI (M14 melanoma): > 100 µM
GI50 (786-0 renal): 3.94 µM
TGI (786-0 renal): 18.5 µM
GI50 (MALME-3M melanoma): 9.43 µM
TGI (MALME-3M melanoma): 45.1 µM
GI50 (SF-295 CNS): 6.72 µM
TGI (SF-295 CNS): 20.6 µM
GI50 (SK-OV-3 ovarian): 17.7 µM
TGI (SK-OV-3 ovarian): 45 µM
GI50 (HCT-116 colon): 13.6 µM
TGI (HCT-116 colon): 31.8 µM
GI50 (NCI-H226 lung): 26.4 µM
TGI (NCI-H226 lung): 84.5 µM
GI50 (SW-620 colon): 20.2 µM
TGI (SW-620 colon): > 100 µM
GI50 (ACHN renal): 10.7 µM
TGI (ACHN renal): 59.5 µM
GI50 (T-47D breast): 19.6 µM
TGI (T-47D breast): 97.4 µM
GI50 (SK-MEL-28 melanoma): > 100 µM
TGI (SK-MEL-28 melanoma): > 100 µM
GI50 (HCC-2998 colon): > 40.1 µM
TGI (HCC-2998 colon): > 100 µM
GI50 (PC-3 prostate): 26.2 µM
TGI (PC-3 prostate): > 100 µM
